Reference: publication PMC9032693, “Biological Evaluation of New Thienopyridinium and Thienopyrimidinium Derivatives as Human Choline Kinase Inhibitors” (Pharmaceutics, 2022)
Where two headings read alike, the source gives them in different places.

What was measured:
[1] = tested on: A549; assay: Antiproliferative activity, resazurin assay, 72 h; format: cell-based, human
Experimental: (§1) Human cervix carcinoma (HeLa), Non-small lung adenocarcinoma (A549), Colon adenocarcinoma (HT29), and human triple negative breast cancer (MDA-MB-231) were cultured in Dulbecco’s modified Eagle’s media (DMEM). B-acute lymphoblastic leukemia (RS4;11 and SEM), T-acute lymphoblastic leukemia (Jurkat), and human promyelocytic cells (HL-60), were cultured in RPMI-1640 medium. Both media were purchased from Gibco, Life Technologies (Milan, Italy) and supplemented with 10% Fetal Bovine Serum (FBS, Invitrogen, Milan, Italy,). Every six months, each cell line was checked for the presence of mycoplasma by RT-PCR.
(§2) Stock solutions (10 mM) of the different compounds were made in DMSO. Cancer cells were seeded in tissue-treated, flat bottom, 384-well plates (Corning) according to their optimal density, (A549 1000 cells/wells; MDA-MB-231, HeLa and HT-29 2000 cells/well and finally Jurkat, HL-60 SEM and RS4;11 20.000 cells/well) in 27 µL of complete medium per well.
(§3) The day after cell seeding and immediately before cell treatment, 10 mM stock solutions of the compounds were pre-diluted to a […] concentration in 250 µL of Hank’s in a 96-well plate (Corning). Subsequent 1:5 dilutions were carried out using a microlab STAR 96-CORE liquid handling system (Hamilton), a robotized liquid handling tool that was employed for all steps, from cell seeding to drug dilution and cell treatment to ensure high reproducibility while reducing time for large screening execution. This pre-dilution step was necessary to avoid DMSO-related cytotoxicity and compound precipitation in the cell culture medium. In every case, DMSO concentration never exceeded 0.1%.
(§4) Positive (Bortezomib 1 µM) and negative (0.1% DMSO) controls were included in all the screened plates to allow for monitoring the Z’ factor throughout the entire screening. Cells were treated with 3 µL of the previously made dilutions; thus, generating a 6-point 5-fold dose–response curve starting from 10 µM. Within a plate, each drug concentration was tested in duplicate in two independent experiments for each compound.
(§5) Treated cells were then placed inside the CO2 incubator for 72 h at 37 °C. Cell viability was assessed by resazurin assay, in which 3 µL of resazurin per well were added using the previously described automated platform. Plates were placed in the incubator at 37 °C for 2 h, and then the fluorescence of each plate was read using a Spark 10 M multimode microplate reader (Tecan Group Ltd., Mannedorf, Switzerland) with 535 nm excitation wavelength and 600 nm emission wavelength.

[2] = tested on: HL-60; assay: Antiproliferative activity, resazurin assay, 72 h; format: cell-based, human
Experimental: as §1, §2, §3, §4, §5

[3] = tested on: HT29; assay: Antiproliferative activity, resazurin assay, 72 h; format: cell-based, human
Experimental: as §1, §2, §3, §4, §5

[4] = tested on: HeLa; assay: Antiproliferative activity, resazurin assay, 72 h; format: cell-based, human
Experimental: as §1, §2, §3, §4, §5

[5] = tested on: Jurkat; assay: Antiproliferative activity, resazurin assay, 72 h; format: cell-based, human
Experimental: as §1, §2, §3, §4, §5

[6] = tested on: MDA-MB-231; assay: Antiproliferative activity, resazurin assay, 72 h; format: cell-based, human
Experimental: as §1, §2, §3, §4, §5

[7] = tested on: RS 4;11; assay: Antiproliferative activity, resazurin assay, 72 h; format: cell-based, human
Experimental: as §1, §2, §3, §4, §5

[8] = tested on: SEM cells; assay: Antiproliferative activity, resazurin assay, 72 h; format: cell-based, human
Experimental: as §1, §2, §3, §4, §5

[9] = Solubility as observed in the enzyme inhibition assays; format: physicochemical; parameters: key to solubility (footnote b): -: The compound was not soluble; conditions: for solubility (footnote b): CK inhibition assay at 10 and 30 µM
[10] = molecular target: T1, CKα1 (Homo sapiens, UniProt P35790); assay: Choline kinase assay ([methyl-14C]choline into PCho, purified enzyme); format: biochemical; conditions: for IC50: concentration required to inhibit CKα1 enzyme by 50%; for % Inhibition at 10 µM: purified CKα1, inhibitor 10 µM; for % Inhibition at 10 µM / % Inhibition at 30 µM: end-point assay; for % Inhibition at 30 µM: purified CKα1, inhibitor 30 µM
T1 construct: an N-terminally His-tagged truncated form of CKα1 (Δ75–457) was cloned into a pET-28a vector; His tag (N); made in house; host or cells: E. coli BL21 (DE3) Star
Experimental: The protein was produced and purified as previously described. Briefly, an N-terminally His-tagged truncated form of CKα1 (Δ75–457) was cloned into a pET-28a vector and expressed at 37 °C in E. coli BL21 (DE3) Star cells using 1 mM isopropyl β-D-1-thiogalactopyranoside (IPTG). After centrifugation, the cellular pellet was resuspended in 50 mM Tris-HCl pH 7.5, 500 mM NaCl, 0.2 mM phenylmethylsulphonyl fluoride (PMSF), DNase, and 0.5 mM β-mercaptoethanol, sonicated and subjected to a two-step purification procedure to isolate the target enzyme. […] Protein elution was completed using buffer A + 400 mM imidazole. A second size-exclusion chromatography step was then carried out to achieve complete purity. To this end, we used a HiPrep 26/60 Sephacryl 100 HR column (GE Healthcare, Little Chalfont, Buckinghamshire, UK) and a 20 mM Tris/HCl pH 7.5, 150 mM NaCl running buffer.
To study the effect of the compounds on CKα, an in vitro enzymatic assay was performed using the purified enzyme as previously reported in [19, 28, 29]. Briefly, the incorporation of ^14C from [methyl-^14C]choline into PCho in either the absence (control) or presence of different inhibitors at varying concentrations was used to determine the CK activity. The reaction mixture included 20 ng of purified CKα1, 10 mM ATP, 10 mM MgCl2, 100 mM Tris-HCl pH 8.5, and increasing concentrations of compounds. The mixture was preincubated at 37 °C for 5 min. Then, [methyl-^14C]choline chloride (1 mM, 4500 dpm/nmol) was added and the reaction was left to proceed for 10 min at 37 °C. The assay was stopped by immersing the reaction tubes in boiling water. PCho was separated by Thin Layer Chromatography using methanol/0.6% NaCl/28% NH4OH in water (50:50:5, v/v/v) as solvent. The radioactivity associated into PCho was determined in a Beckman 6000-TA (Madrid, Spain) liquid scintillation counter. The 50% inhibitory concentrations (IC50 values) were determined from the % enzyme activity at different concentrations of synthetic inhibitors relative to the control by using a sigmoidal dose–response curve (ED50plus v1.0 software).

T1 sequence (P35790 75-457): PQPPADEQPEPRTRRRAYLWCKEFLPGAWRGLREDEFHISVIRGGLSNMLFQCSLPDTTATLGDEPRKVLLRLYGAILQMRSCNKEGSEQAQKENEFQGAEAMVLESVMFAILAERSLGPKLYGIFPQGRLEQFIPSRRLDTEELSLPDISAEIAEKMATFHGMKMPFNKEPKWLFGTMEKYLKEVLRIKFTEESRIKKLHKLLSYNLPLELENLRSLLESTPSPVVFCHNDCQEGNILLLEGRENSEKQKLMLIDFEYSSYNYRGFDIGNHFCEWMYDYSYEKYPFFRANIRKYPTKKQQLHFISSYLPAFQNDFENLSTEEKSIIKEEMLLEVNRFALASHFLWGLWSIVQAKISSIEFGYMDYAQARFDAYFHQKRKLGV

SMILES | GI50 [1] [nM] | GI50 [2] [nM] | GI50 [3] [nM] | GI50 [4] [nM] | GI50 [5] [nM] | GI50 [6] [nM] | GI50 [7] [nM] | GI50 [8] [nM] | IC50 [10] [nM] | % Inhibition at 10 µM [10] [%] | % Inhibition at 30 µM [10] [%] | also measured
[Br-].[Br-].c1cc2c(N3CCCCCC3)nc[n+](Cc3ccc(-c4ccc(C[n+]5cnc(N6CCCCCC6)c6ccsc65)cc4)cc3)c2s1 [Fg-18] | 210 ± 10 | 790 ± 20 | 2320 ± 20 | 1810 ± 20 | 7040 ± 800 | 610 ± 30 | 2650 ± 40 | > 10000 | – | – | – | solubility (footnote b) [9]: - ^b
[Br-].[Br-].c1cc2c(s1)c(N1CCCCC1)nc[n+]2Cc1ccc(CCc2ccc(C[n+]3cnc(N4CCCCC4)c4sccc43)cc2)cc1 [Fa-25] | 280 ± 20 | 140 ± 10 | 1470 ± 60 | 620 ± 20 | 5480 ± 500 | 330 ± 20 | 1840 ± 100 | 2530 ± 30 | – | – | – | solubility (footnote b) [9]: - ^b; solubility (in words) ([9]; IC50 could not be determined): insolubility
[Br-].[Br-].c1cc2c(s1)c(N1CCCCCC1)nc[n+]2Cc1ccc(OCCOc2ccc(C[n+]3cnc(N4CCCCCC4)c4sccc43)cc2)cc1 [Ff-34] | 290 ± 30 | 270 ± 10 | 1630 ± 100 | 930 ± 10 | 6100 ± 1100 | 910 ± 80 | 1800 ± 100 | 2500 ± 100 | 700 ± 30 | 94.31 | 99.02 | IC50 ([10]; listed as Fa-34): 704 nM
[Br-].[Br-].c1cc2c(N3CCCCC3)nc[n+](Cc3ccc(CCc4ccc(C[n+]5cnc(N6CCCCC6)c6ccsc65)cc4)cc3)c2s1 [Fg-31] | 1170 ± 10 | 760 ± 50 | 4500 ± 400 | 1400 ± 20 | > 10000 | 1090 ± 100 | 7200 ± 1000 | > 10000 | ≥ 10000 | 51.54 | 74.39 | –
[Br-].[Br-].c1cc2c(s1)c(N1CCCC1)nc[n+]2Cc1ccc(OCCOc2ccc(C[n+]3cnc(N4CCCC4)c4sccc43)cc2)cc1 [Ff-8] | 290 ± 300 | 550 ± 20 | 1890 ± 200 | 910 ± 90 | > 10000 | 320 ± 50 | 3470 ± 300 | > 10000 | – | 79.23 | 92.88 | –
[Br-].[Br-].c1cc2c(N3CCCC3)nc[n+](Cc3ccc(CCc4ccc(C[n+]5cnc(N6CCCC6)c6ccsc65)cc4)cc3)c2s1 [Fg-15] | 220 ± 30 | 130 ± 10 | 2010 ± 30 | 1000 ± 100 | > 10000 | 260 ± 20 | 3710 ± 40 | > 10000 | ≥ 5000 | 71.11 | 81.29 | –
c1cc2c(s1)c(N1CCCCCC1)nc[n+]2Cc1ccc(CCCCc2ccc(C[n+]3cnc(N4CCCCCC4)c4sccc43)cc2)cc1 [Fa-29] | – | – | – | – | – | – | – | – | 1080 ± 70 | – | – | inhibition at 5 µM ([10]; purified CKα1, inhibitor 5 µM, read-out: percentage inhibition at 5 µM): 85%; GI50 ([1]; Homo sapiens, A549): 140 ± 20 nM; GI50 ([2]; Homo sapiens, HL-60): 550 ± 20 nM; GI50 ([3]; Homo sapiens, HT-29): 1090 ± 200 nM; GI50 ([4]; Homo sapiens, HeLa): 840 ± 40 nM; GI50 ([5]; Homo sapiens, Jurkat): 5230 ± 800 nM; GI50 ([6]; Homo sapiens, MDA-MB-231): 500 ± 20 nM; GI50 ([7]; Homo sapiens, RS4-11): 1600 ± 100 nM; GI50 ([8]; Homo sapiens): 1770 ± 200 nM
[Br-].[Br-].c1cc2c(s1)c(N1CCCC1)nc[n+]2Cc1ccc(CCCCc2ccc(C[n+]3cnc(N4CCCC4)c4sccc43)cc2)cc1 [Ff-7] | 210 ± 30 | 400 ± 50 | 1480 ± 40 | 870 ± 50 | 8610 ± 1300 | 470 ± 40 | 2330 ± 300 | 2930 ± 200 | 8570 ± 2800 | 89.95 | 95.88 | –
[Br-].[Br-].c1cc2c(s1)c(N1CCCC1)cc[n+]2Cc1ccc(OCCOc2ccc(C[n+]3ccc(N4CCCC4)c4sccc43)cc2)cc1 [Ff-2] | 1060 ± 100 | 2140 ± 100 | > 10000 | 3260 ± 400 | > 10000 | 1430 ± 200 | > 10000 | > 10000 | – | 77.41 | 82.77 | –
[Br-].[Br-].c1cc2c(s1)c(N1CCCCC1)nc[n+]2Cc1ccc(-c2ccc(C[n+]3cnc(N4CCCCC4)c4sccc43)cc2)cc1 [Fa-24] | 1170 ± 200 | 7280 ± 1100 | > 10000 | 7080 ± 1300 | > 10000 | 700 ± 70 | > 10000 | > 10000 | 2330 ± 210 | 84.64 | 98.40 | –
[Br-].[Br-].c1cc2c(s1)c(N1CCCCC1)nc[n+]2Cc1ccc(OCCOc2ccc(C[n+]3cnc(N4CCCCC4)c4sccc43)cc2)cc1 [Fa-28] | 290 ± 20 | 350 ± 10 | > 10000 | 590 ± 20 | > 10000 | 190 ± 10 | 2320 ± 30 | 2410 ± 40 | 3250 ± 540 | 87.69 | 92.19 | –
[Br-].[Br-].c1cc2c(N3CCCCC3)nc[n+](Cc3ccc(OCCOc4ccc(C[n+]5cnc(N6CCCCC6)c6ccsc65)cc4)cc3)c2s1 [Ff-5] | 340 ± 60 | 200 ± 10 | 1730 ± 300 | 1030 ± 100 | > 10000 | 1100 ± 200 | 2450 ± 20 | 3270 ± 30 | ≥ 5000 | 64.21 | 85.71 | –
[Br-].[Br-].c1cc2c(N3CCCCCC3)nc[n+](Cc3ccc(CCCCc4ccc(C[n+]5cnc(N6CCCCCC6)c6ccsc65)cc4)cc3)c2s1 [Ff-35, ((1,1′-((butane-1,4-diylbis(4,1-phenylene))bis(methylene))bis(4-(azepan-1-yl)thieno[2,3-d]pyrimidin-1-ium)) bromide] | 140 ± 20 | 150 ± 10 | 780 ± 30 | 300 ± 10 | 1540 ± 20 | 97 ± 1 | 950 ± 50 | 760 ± 30 | 460 ± 80 | – | – | –
[Br-].[Br-].c1cc2c(N3CCCC3)nc[n+](Cc3ccc(CCCCc4ccc(C[n+]5cnc(N6CCCC6)c6ccsc65)cc4)cc3)c2s1 [Ff-3] | 210 ± 20 | 210 ± 30 | 1330 ± 10 | 630 ± 20 | 7540 ± 1500 | 360 ± 30 | 2050 ± 100 | 3700 ± 400 | ≥ 5000 | 74.17 | 80.09 | –
